{
  "source": "ChEMBL document CHEMBL5137028",
  "about": "“Progress and Challenges in Targeting the SARS-CoV-2 Papain-like Protease” (J Med Chem, 2022)",
  "key": {"[1]": {"tested_on": "SARS-CoV-2", "test": "Antiviral activity against SARS-CoV-2 infected in African green monkey Vero cells assessed as viral growth inhibition by cell culture based assay", "assay_type": "functional, organism-based", "conditions": "Severe acute respiratory syndrome coronavirus 2, Vero"}, "[2]": {"test": "Cytotoxicity against African green monkey Vero E6 cells assessed as cell viability treated for 24 to 48 hrs by prestoblue staining based assay", "assay_type": "toxicity, Vero C1008", "conditions": "chlorocebus sabaeus, time 24-48 hrs"}, "[3]": {"tested_on": "SARS-CoV-2", "test": "Antiviral activity against SARS-CoV-2 USA-WA1/2020 isolate infected in human Caco2 expressing hACE2 cells assessed as viral growth inhibition at MOI of 0.1 treated for 24 hrs by fluorescence microscopy", "assay_type": "functional, organism-based", "conditions": "Severe acute respiratory syndrome coronavirus 2, USA-WA1/2020 isolate, Caco-2, 24 h"}, "[4]": {"tested_on": "SARS-CoV-2", "test": "Antiviral activity against SARS-CoV-2 infected in human HeLa cells expressing hACE2 assessed as inhibition of viral replication at MOI of 0.3 treated for 46 hrs by fluorescence microscopy", "assay_type": "functional, organism-based", "conditions": "Severe acute respiratory syndrome coronavirus 2, HeLa"}, "[5]": {"tested_on": "HeLa", "test": "Cytotoxicity against human HeLa cells expressing hACE2 assessed as cell viability treated for 72 hrs by Cell Titer Glo assay", "assay_type": "functional"}, "[6]": {"tested_on": "SARS-CoV-2", "test": "Antiviral activity against SARS-CoV-2 USA-WA1/2020 infected in African green monkey Vero E6 cells assessed as viral growth inhibition pretreated for 1 hr followed by infection at MOI of 0.1 measured after 48 hrs by Cell Titer Glo assay", "assay_type": "functional, organism-based", "conditions": "Severe acute respiratory syndrome coronavirus 2, USA-WA1/2020, Vero C1008"}, "[7]": {"tested_on": "SARS-CoV-2", "test": "Antiviral activity against SARS-CoV-2 infected in African green monkey Vero cells assessed as viral growth inhibition measured after 72 hrs by LDH assay", "assay_type": "functional, organism-based", "conditions": "Severe acute respiratory syndrome coronavirus 2, Vero"}, "[8]": {"test": "Stability in human liver microsome assessed as half life", "assay_type": "ADME", "conditions": "liver microsomes"}, "[9]": {"test": "Stability in human liver S9 fraction assessed as half life", "assay_type": "ADME, subcellular"}, "[10]": {"tested_on": "SARS-CoV-2", "test": "Antiviral activity against SARS-CoV-2 infected in African green monkey Vero cells assessed as viral growth inhibition incubated for 1 hr by crystal violet staining based plaque reduction assay", "assay_type": "functional, organism-based", "conditions": "Severe acute respiratory syndrome coronavirus 2, Vero"}, "[11]": {"molecular_target": "Replicase polyprotein 1ab (Severe acute respiratory syndrome coronavirus 2) (UniProt P0DTD1)", "test": "Inhibition of SARS-CoV-2 papain-like protease nsp3 (745 to 1061 residues) expressed in Escherichia coli"}, "[12]": {"test": "Cytotoxicity against African green monkey Vero E6 cells assessed as cell viability treated for 24 hrs by CCK8 assay", "assay_type": "toxicity, cell-based, Vero C1008", "conditions": "chlorocebus sabaeus"}, "[13]": {"tested_on": "SARS-CoV-2", "test": "Antiviral activity against SARS-CoV-2 infected in human A549 cells expressing ACE2 assessed as viral growth inhibition", "assay_type": "functional, organism-based", "conditions": "Severe acute respiratory syndrome coronavirus 2, A549"}, "[14]": {"tested_on": "Middle East respiratory syndrome-related coronavirus", "test": "Antiviral activity against MERS-CoV assessed as viral growth inhibition", "assay_type": "functional, organism-based"}, "[15]": {"tested_on": "SARS-CoV-2", "test": "Antiviral activity against SARS-CoV-2 infected in African green monkey Vero cells assessed as viral growth inhibition", "assay_type": "functional, organism-based", "conditions": "Severe acute respiratory syndrome coronavirus 2, Vero"}, "[16]": {"test": "Antiviral activity against HCoV-OC43 assessed as viral growth inhibition", "assay_type": "functional, Human coronavirus OC43"}, "[17]": {"test": "Selectivity index, ratio of CC50 for human A549 cells expressing ACE2 to EC50 for SARS-CoV-2 infected in human A549 cells expressing ACE2", "assay_type": "toxicity, cell-based", "conditions": "read-out: Ratio CC50/EC50"}, "[18]": {"test": "Cytotoxicity against African green monkey Vero cells assessed as cell viability", "assay_type": "toxicity, cell-based", "conditions": "chlorocebus sabaeus"}, "[19]": {"tested_on": "A549", "test": "Cytotoxicity against human A549 cells expressing ACE2 assessed as cell viability", "assay_type": "functional"}, "[20]": {"test": "Selectivity index, ratio of CC50 for African green monkey Vero cells to EC50 for SARS-CoV-2 infected in African green monkey Vero cells", "assay_type": "toxicity", "conditions": "read-out: Ratio CC50/EC50"}, "[21]": {"test": "Cytotoxicity against African green monkey Vero E6 cells assessed as cell viability", "assay_type": "toxicity, cell-based, Vero C1008", "conditions": "chlorocebus sabaeus"}},
  "data": [
    {"smiles": "Cc1cc2nc3c(=O)[nH]c(=O)nc-3n(C)c2cc1C=O", "values": [
      {"measurement": "EC50", "setting": "[1]", "value": 20, "unit": "µM"}
    ]},
    {"smiles": "O=C1c2c(O)cccc2[C@H]([C@@H]2O[C@H](CO)[C@@H](O)[C@H](O)[C@H]2O)c2cc(CO)cc(O)c21", "values": [
      {"measurement": "CC50", "setting": "[2]", "value": "> 100", "unit": "µM"}
    ]},
    {"smiles": "O=C1c2c(O)cccc2[C@@H]([C@@H]2O[C@H](CO)[C@@H](O)[C@H](O)[C@H]2O)c2cc(CO)cc(O)c21", "values": [
      {"measurement": "CC50", "setting": "[2]", "value": "> 100", "unit": "µM"}
    ]},
    {"smiles": "C[C@H](c1cccc2ccccc12)N(C)Cc1c[nH]c2ccccc12", "values": [
      {"measurement": "EC50", "setting": "[3]", "value": 12, "unit": "µM"}
    ]},
    {"smiles": "C[C@H](c1cccc2ccccc12)N1CCC(C(=O)NCc2cc(F)cc(NC(=O)N3CCN(C)CC3)c2)CC1", "values": [
      {"measurement": "EC50", "setting": "[4]", "value": 180, "unit": "nM"},
      {"measurement": "CC50", "setting": "[5]", "value": "> 10", "unit": "µM"}
    ]},
    {"smiles": "C[C@@H](NC(=O)c1ccccc1CCC(=O)NNC(=O)CCl)c1cccc2ccccc12", "values": [
      {"measurement": "EC50", "setting": "[6]", "value": 34, "unit": "µM"}
    ]},
    {"smiles": "COc1cc(CNC(=O)C2CCN(C(C)c3cccc4ccccc34)CC2)ccn1", "note": "(stereo not drawn)", "values": [
      {"measurement": "EC50", "setting": "[7]", "value": "< 11", "unit": "µM"}
    ]},
    {"smiles": "COC(=O)/C=C/C(=O)NNC(=O)CCc1ccccc1C(=O)N[C@H](C)c1cccc2ccccc12", "values": [
      {"measurement": "half-life", "setting": "[8]", "value": 50, "unit": "min"},
      {"measurement": "half-life", "setting": "[9]", "value": 60, "unit": "min"}
    ]},
    {"smiles": "Cc1ccc(N)cc1C(=O)N[C@H](C)c1cccc2ccccc12", "values": [
      {"measurement": "EC50", "setting": "[10]", "value": 3.18, "unit": "µM"},
      {"measurement": "EC50", "setting": "[1]", "value": 32.6, "unit": "µM"}
    ]},
    {"smiles": "COC(=O)/C=C/CNC(=O)CNC(=O)[C@H](CN)NC(=O)[C@H](CCc1ccc(O)cc1)NC(C)=O", "values": [
      {"measurement": "INH", "setting": "[11]", "value": 100, "unit": "µM"}
    ]},
    {"smiles": "COC(=O)/C=C/CNC(=O)CNC(=O)[C@H](CN)NC(=O)[C@H](CCc1nc2ccccc2s1)NC(C)=O", "values": [
      {"measurement": "INH", "setting": "[11]", "value": 100, "unit": "µM"}
    ]},
    {"smiles": "C[C@H]1COC2=C1C(=O)C(=O)c1c2ccc2c1CCCC2(C)C", "note": "[CRYPTOTANSHINONE]", "values": [
      {"measurement": "CC50 at 24 h", "setting": "[12]", "value": "> 300", "unit": "µM"},
      {"measurement": "EC50", "setting": "[1]", "value": "> 200", "unit": "µM"}
    ]},
    {"smiles": "Cc1cccc2c3c(ccc12)C1=C(C(=O)C3=O)[C@@H](C)CO1", "note": "[DIHYDROTANSHINONE I]", "values": [
      {"measurement": "EC50", "setting": "[1]", "value": 8.15, "unit": "µM"}
    ]},
    {"smiles": "Nc1ccc2cc3ccc(N)cc3nc2c1", "note": "[PROFLAVINE]", "values": [
      {"measurement": "EC50", "setting": "[13]", "value": 86, "unit": "nM"},
      {"measurement": "IC50", "setting": "[14]", "value": 21, "unit": "nM"},
      {"measurement": "EC50", "setting": "[15]", "value": 64, "unit": "nM"},
      {"measurement": "IC50", "setting": "[16]", "value": 105, "unit": "nM"},
      {"measurement": "selectivity ratio", "setting": "[17]", "value": 36},
      {"measurement": "CC50", "setting": "[18]", "value": 3.4, "unit": "µM"},
      {"measurement": "CC50", "setting": "[19]", "value": 3.1, "unit": "µM"},
      {"measurement": "selectivity ratio", "setting": "[20]", "value": 53}
    ]},
    {"smiles": "Cc1coc2c1C(=O)C(=O)c1c-2ccc2c1CCCC2(C)C", "note": "[TANSHINONE IIA]", "values": [
      {"measurement": "EC50", "setting": "[1]", "value": "> 200", "unit": "µM"}
    ]},
    {"smiles": "Cc1coc2c1C(=O)C(=O)c1c-2ccc2c(C)cccc12", "note": "[TANSHINONE I]", "values": [
      {"measurement": "CC50 at 24 h", "setting": "[12]", "value": "> 200", "unit": "µM"}
    ]},
    {"smiles": "Nc1nc2nc[nH]c2c(=S)[nH]1", "note": "[THIOGUANINE]", "values": [
      {"measurement": "CC50", "setting": "[21]", "value": 35.5, "unit": "µM"}
    ]}
  ]
}
